Source: US20080318938A1, “METHODS FOR TREATING ABERRANT CELL PROLIFERATION DISORDERS” (priority 2007, published 2008)

What was measured:
Ramos = test: Inhibition of cell proliferation (MTT); type: cell-based; settings: Homo sapiens, Lymphoma, 48 hours
Description: (§1) Inhibition of cell proliferation is determined in human tumor cell lines. Innoculation density and doubling times for specific cell lines are listed at World Wide Web URL “dtp.nci.nih.gov/docs/misc/common_files/cell_list.html.”
(§2) • 1. Plate adherent cells the day before starting the experiment in 180 μl growth media (see list hereafter). • 2. Day of experiment, count and plate suspension cells in 180 μl growth media (see list on next page). • 3. Make 10× Compound, vehicle, and chemotherapeutic cocktail • a. Compound (1× to 10×) • i. 10 μM Compound to 100 μM • ii. 3 μM Compound to 30 μM • iii. 1 μM Compound to 10 μM • iv. 0.3 μM Compound to 3 μM • v. 0.1 μM Compound to 1 μM • b. Vehicle • i. PBS, equivalent to the volume used for 10 μM Compound (1× is ˜0.06% PBS) • c. Chemotherapeutic cocktail (1× to 10×): • i. 1 μM Velcade to 10 μM • ii. 100 μM Etoposide to 1 mM • iii. 20 μM Taxol to 200 μM • 4. Add 20 μl of the 10× compound/vehicle/chemotherapeutic cocktail to cells. • 5. Incubate at 37° C., 5% CO2 for 48 hours. • 6. Aspirate media. For suspension cells, spin plate at 1500 RPM for 10 minutes. Use a multichannel pipettor to slowly remove media. • 7. Add 200 μl of Thiazolyl Blue Tetrazolium Bromide (MTT) to each well: 0.863 mg/ml MTT in growth media.
(§3) Proliferation of several cancer cells was inhibited by compound TA1-1B (which is a particular mixture of the isomers represented by TA1-1A), as shown in the following table (Table 1). The value EC50 is the amount of Compound TA1-1B that results in 50% inhibition of proliferation of the indicated cell type.

Hs602 = test: Inhibition of cell proliferation (MTT); type: cell-based; settings: Homo sapiens; Hs602, Lymphoma; 48 hours
Description: as §1, §2, §3

SNB-19 = test: Inhibition of cell proliferation (MTT); type: cell-based; settings: Homo sapiens; SNB-19, CNS; 48 hours
Description: as §1, §2, §3

HS 578T = test: Inhibition of cell proliferation (MTT); type: cell-based; settings: Homo sapiens, Breast, 48 hours
Description: as §1, §2, §3

OVCAR-3 = test: Inhibition of cell proliferation (MTT); type: cell-based; settings: Homo sapiens; OVCAR-3, Ovarian; 48 hours
Description: as §1, §2, §3

MEG-01 = test: Inhibition of cell proliferation (MTT); type: cell-based; settings: Homo sapiens; MEG-01, Leukemia; 48 hours
Description: as §1, §2, §3

U937 = test: Inhibition of cell proliferation (MTT); type: cell-based; settings: Homo sapiens, U-937; U937, Lymphoma; 48 hours
Description: as §1, §2, §3

MOLT4 = test: Inhibition of cell proliferation (MTT); type: cell-based; settings: Homo sapiens, MOLT-4; MOLT4, Leukemia; 48 hours
Description: as §1, §2, §3

UACC-62 = test: Inhibition of cell proliferation (MTT); type: cell-based; settings: Homo sapiens; UACC-62, Melanoma; 48 hours
Description: as §1, §2, §3

DOHH2 = test: Inhibition of cell proliferation (MTT); type: cell-based; settings: Homo sapiens, DOHH-2; DOHH2, Lymphoma; 48 hours
Description: as §1, §2, §3

786-0 = test: Inhibition of cell proliferation (MTT); type: cell-based; settings: Homo sapiens; 786-0, Renal; 48 hours
Description: as §1, §2, §3

THP-1 = test: Inhibition of cell proliferation (MTT); type: cell-based; settings: Homo sapiens; THP-1, Leukemia; 48 hours
Description: as §1, §2, §3

MOLT-3 = test: Inhibition of cell proliferation (MTT); type: cell-based; settings: Homo sapiens; MOLT-3, Leukemia; 48 hours
Description: as §1, §2, §3

T-47D = test: Inhibition of cell proliferation (MTT); type: cell-based; settings: Homo sapiens, T47D, Breast, 48 hours
Description: as §1, §2, §3

[1] = tested on: 5-HT1B 5-hydroxytryptamine (serotonin) receptor 1B; test: Receptor binding
HOP-92 = test: Inhibition of cell proliferation (MTT); type: cell-based, human; settings: HOP-92, Non Small Cell Lung
Description: as §1, §2, §3

SR = test: Inhibition of cell proliferation (MTT); type: cell-based, human; settings: Leukemia
Description: as §1, §2, §3

CCRF-CEM = test: Inhibition of cell proliferation (MTT); type: cell-based, human; settings: Leukemia
Description: as §1, §2, §3

[2] = tested on: BZD (peripheral) peripheral Benzodiazepine receptor; test: Receptor binding
[3] = Tissue distribution in rats (in vivo pharmacokinetic study); set-up: species or system Sprague Dawley rats
Description: Five groups (three animals per group) of male Sprague Dawley rats were assigned for in vivo pharmacokinetic study. • Group-1 animals were dosed intravenously with compound TA1-1B at 7.5 mg/kg and after 2 hr post-dose animals were terminated and whole blood, plasma, brain, bone marrow and adrenal gland collected. • Group-2 animals were dosed intravenously with compound TA1-1B at 7.5 mg/kg for five consecutive days. After 2 hr of the last dose (98 hr) animals were terminated and whole blood, plasma, brain, bone marrow and adrenal gland collected. • Group-3 animals were dosed intravenously with compound TA1-1B at 7.5 mg/kg for five consecutive days. After 26 hr of the last dose (122 hr) animals were terminated and whole blood, plasma, brain, bone marrow and adrenal gland collected. • Group-4 animals were dosed intravenously with compound TA1-1B at 7.5 mg/kg for five consecutive days. After 50 hr of the last dose (146 hr) animals were terminated and whole blood, plasma, brain, bone marrow and adrenal gland collected. • Group-5 animals were dosed intravenously with vehicle, terminated and whole blood, plasma, brain, bone marrow and adrenal gland collected. Tissues obtained from this group of animals were used for corresponding matrix preparation in subsequent bioanalysis.
After administration the compound TA1-1B quickly reaches those tissues (after 2 hr) and subsequently gets cleared.

H2-receptor = H2-receptor (Homo sapiens, UniProt P25021); test: Receptor binding
[4] = target: CCKB/CCK2 Cholecystokinin receptor (Homo sapiens, UniProt P32239); test: Receptor binding
M2 Muscarinic receptor = M2 Muscarinic receptor (Homo sapiens, UniProt P08172); test: Receptor binding
[5] = 7.5 mg/kg intravenously (FIG. 3)
[6] = 7.5 mg/kg intravenously, time point not stated, unit from FIG. 2 legend

Chain of H2-receptor (P25021 whole entry): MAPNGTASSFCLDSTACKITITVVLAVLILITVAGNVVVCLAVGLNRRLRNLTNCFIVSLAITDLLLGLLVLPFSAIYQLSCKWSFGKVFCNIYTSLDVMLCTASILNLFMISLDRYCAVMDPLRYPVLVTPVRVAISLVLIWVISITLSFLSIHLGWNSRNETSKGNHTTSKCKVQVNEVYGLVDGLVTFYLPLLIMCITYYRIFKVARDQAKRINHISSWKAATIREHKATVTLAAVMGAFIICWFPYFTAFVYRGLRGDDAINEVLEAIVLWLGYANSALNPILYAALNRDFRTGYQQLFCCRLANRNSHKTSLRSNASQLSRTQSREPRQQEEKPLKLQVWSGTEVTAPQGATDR
Chain of M2 Muscarinic receptor (P08172 whole entry): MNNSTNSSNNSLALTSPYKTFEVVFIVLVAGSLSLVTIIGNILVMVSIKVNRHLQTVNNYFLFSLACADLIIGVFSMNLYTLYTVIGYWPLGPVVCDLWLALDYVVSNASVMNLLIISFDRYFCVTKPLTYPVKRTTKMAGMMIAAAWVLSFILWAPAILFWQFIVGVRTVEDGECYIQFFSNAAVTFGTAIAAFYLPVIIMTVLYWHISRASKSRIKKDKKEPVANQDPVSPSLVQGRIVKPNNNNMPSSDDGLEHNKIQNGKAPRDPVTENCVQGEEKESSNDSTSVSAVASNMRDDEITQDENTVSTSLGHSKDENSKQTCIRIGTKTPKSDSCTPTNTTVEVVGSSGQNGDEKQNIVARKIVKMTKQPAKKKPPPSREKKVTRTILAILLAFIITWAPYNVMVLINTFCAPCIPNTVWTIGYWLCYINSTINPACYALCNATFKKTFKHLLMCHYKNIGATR
Chain of CCKB/CCK2 Cholecystokinin receptor (P32239 whole entry): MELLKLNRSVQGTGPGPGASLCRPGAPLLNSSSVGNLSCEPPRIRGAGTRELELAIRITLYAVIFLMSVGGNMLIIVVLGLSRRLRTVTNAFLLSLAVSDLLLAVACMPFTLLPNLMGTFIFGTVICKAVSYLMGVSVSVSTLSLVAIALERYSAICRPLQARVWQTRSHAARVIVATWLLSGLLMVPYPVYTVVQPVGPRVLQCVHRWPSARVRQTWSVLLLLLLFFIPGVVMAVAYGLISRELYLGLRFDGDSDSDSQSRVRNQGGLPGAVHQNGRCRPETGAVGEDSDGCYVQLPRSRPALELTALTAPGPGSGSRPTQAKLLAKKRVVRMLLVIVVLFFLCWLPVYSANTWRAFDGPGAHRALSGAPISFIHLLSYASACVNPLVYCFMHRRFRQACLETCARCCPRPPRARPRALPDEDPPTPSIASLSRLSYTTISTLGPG

CN1CCC[C@H]1CCNC(=O)c1cn2c3c(c(N4CCC(c5cnccn5)C4)c(F)cc3c1=O)Oc1cc3ccccc3cc1-2 (stereo partly shown) [TA1-1B]
EC50 (Ramos): 1330 nM | EC50 (Hs602): 1280 nM | EC50 (SNB-19): 4630 nM | EC50 (HS 578T): 1940 nM | EC50 (OVCAR-3): 4280 nM | EC50 (MEG-01): 6000 nM | EC50 (U937): 4540 nM | EC50 (MOLT4): 1220 nM | EC50 (UACC-62): 4880 nM | EC50 (DOHH2): 1560 nM | EC50 (786-0): 4340 nM | EC50 (THP-1): 3180 nM | EC50 (MOLT-3): 1140 nM | EC50 (T-47D): 6560 nM | % inhibition @ 1 uM [1]: 49% | EC50 (HOP-92; 48 hours): 1960 nM | EC50 (HOP-92; Homo sapiens, HOP-92, 48 h): 1800 nM | EC50 (SR; Homo sapiens, 48 h): 914 nM | EC50 (SR; 48 hours): 1300 nM | EC50 (CCRF-CEM; Homo sapiens, 48 h): 630 nM | EC50 (CCRF-CEM; 48 hours): 1220 nM | % inhibition @ 1 uM [2]: 65% | Exposure in adrenal glands and bone marrow relative to other tissues [3, 5]: highest exposures | Retention in adrenal glands and bone marrow versus brain [3, 5]: retains longer | Elimination from rat brain tissue ([3]; 7.5 mg/kg intravenously QDx5, over 48 hr post-dose (FIG. 2)): almost completely eliminates | Concentration in brain tissue [3, 6]: 1600 nM | Concentration in plasma [3, 6]: 200 nM | Concentration in whole blood [3, 6]: 500 nM | inhibition at 1 µM (H2-receptor): 48% | inhibition at 1 µM [4]: 93% | inhibition at 1 µM (M2 Muscarinic receptor): 92%
